For series [1] the following is noted: male, Sprague-Dawley, rat, in vivo, po, 8 g/kg.
Description: (§1) Twelve male Spargue-Dawley rats (200 ± 20 g) were supplied by Vital River Laboratory Animal Technology Co. Ltd. (Beijing, China). […] The rats were acclimated under a humidity (50%) controlled room at 22–25 °C with a 12 h light-dark cycle, and standard diet and water were provided ad libitum for one week.
(§2) Afterwards, all rats were randomly divided into two groups, namely sham and model groups. The myocardial ischemia model was simulated by left anterior descending (LAD) coronary artery ligation [12], whilst the rats belonging to the sham group received the similar surgery, however no actual ligation in LAD. All animals were fasted overnight with free access to water prior to oral dosing. Aliquots (250 μL) of blood were sampled at 0 (pre-dose), 0.08, 0.25, 0.5, 0.75, 1, 1.5, 2, 4, 6, 8, 12, and 24 h from venous around eye socket into heparinized tubes after a single oral dosing of 8.0 g/kg of QSKL and the collected blood samples were immediately subjected for 4000 rpm centrifugation for 10 min at 4 °C to harvest the plasma samples. Each 100 μL aliquot of plasma sample was transferred into another Eppendorf tube and stored at −80 °C till use.
(§3) When analysis, 300 μL of internal standards (200 ng/mL for either internal standard) fortified ACN, corresponding to three volumes of plasma, was spiked into each thawed plasma sample and mixed thoroughly. Then, the resulting samples were processed as those calibration samples.
(§4) Individual animal plasma concentrations versus time dataset were subjected to a non-compartmental pharmacokinetic analysis using WinNonlin software (ver. 6.4, Pharsight Corp., Sunnyvale, CA, USA). The pharmacokinetic parameters of each analyte including the maximum plasma concentration (Cmax), the time at which Cmax was achieved (Tmax), the terminal elimination half-life (t1/2), and the area under the plasma concentration versus time curve (AUC0→t along with AUC0→∞) were calculated. Moreover, Lz corresponding to the ratio of the dosage and AUC0→∞, as well as mean residence time (MRT) that was defined as the ratio of the area under the first moment curve from time 0 to infinity (AUMC0→∞/AUC0→∞) was also calculated. All results are expressed as mean ± SD. Comparisons regarding the pharmacokinetic parameters were carried out between sham and model groups using Student’s t-test, and p values less than 0.05 were considered to be significant.
Series [2] is described as follows: in vivo. As to conditions: male, Sprague-Dawley, rat, po, 8 g/kg; for AUC(0-t): AUC0–t; for AUC(0-inf): AUC0–∞.
Description: as §1, §2, §3, §4
The nature of series [3]: Pharmacokinetic study in sham and myocardial ischemia model rats after a single oral dose of QSKL (UHPLC-psMS/MS of plasma, non-compartmental analysis). The note with it: QSKL-treated plasma samples, sham and model rats, single oral dose 8.0 g/kg.
Description: as §1, §2, §3, §4
Setting [4] is: model group (MG, myocardial ischemia) rats, oral administration of QSKL, plasma, mean ± SD, n = 6.
Setting [5] is: sham group (SG) rats, oral administration of QSKL, plasma, mean ± SD, n = 6.
Where [6] appears, read: t1/2, model group (MG, myocardial ischemia) rats, oral administration of QSKL, plasma, mean ± SD, n = 6.
[7] abbreviates: t1/2, sham group (SG) rats, oral administration of QSKL, plasma, mean ± SD, n = 6.

Read-outs that look alike come from different tables or passages of the source.

By AUC(0-t) is commonly meant exposure summed from dosing to a finite time, without extrapolation to infinity. Low values mean low exposure, high ones high exposure. In general, AUC(0-inf) refers to total exposure, with the tail of the curve extrapolated. As a reminder, the Cmax is the maximum level reached in the sampled fluid or tissue. One may read the Tmax as the time at which the peak concentration occurs. As for `C=C[C@H]1[C@H](O[C@@H]2O[C@H](CO)[C@@H](O)[C@H](O)[C@H]2O)OC=C2C(=O)OCC[C@H]21` [sweroside], in series [1], the “AUC0–t” value stood at 247 ± 58.0 ng·h/mL and the “AUC0–∞” value is 281 ± 53.4 ng·h/mL. Besides, in series [2], the exposure AUC(0-t) was found to be 210 ± 75.7 ng·h/mL, the AUC(0-inf) was 294 ± 94.2 ng·h/mL, the Cmax came out at 28.9 ± 14.3 ng/mL and the Tmax worked out at 1.58 ± 1.31 h.
For orientation: MRT means a mean duration of stay, worked out from the concentration-time curve. The half-life is the time needed for the level to fall by half in the phase considered. High values mean slow decline, low ones rapid decline. For `O=C(/C=C/c1ccc(O[C@@H]2O[C@H](CO)[C@@H](O)[C@H](O)[C@H]2O)cc1)c1ccc(O)cc1O` [isoliquiritin], in series [2] (setting [4]), the AUC(0-t) was determined as 1.58 ± 0.493 ng·h/mL, the area under the curve AUC(0-inf) is 1.86 ± 0.632 ng·h/mL, the Cmax was determined as 0.85 ± 0.761 ng/mL and the MRT is 10.2 ± 4.65 h. Besides, the Tmax in series [2] (setting [4]) was found to be 0.43 ± 0.36 h. In series [2] (setting [5]), this compound had an AUC(0-t) of 1.39 ± 0.36 ng·h/mL, a total exposure AUC(0-inf) of 1.64 ± 0.474 ng·h/mL, a Cmax of 0.389 ± 0.167 ng/mL and a mean residence time (MRT) of 10.5 ± 3.13 h. Further, the time of peak concentration (Tmax) in series [2] (setting [5]) was 0.36 ± 0.31 h. The half-life in series [2] (setting [6]) is 8.28 ± 3.4 h. Besides, the half-life in series [2] (setting [7]) was 6.26 ± 0.976 h. Besides, the “distribution in rat plasma (quantifiable or not)” value in series [3] is “quantifiable in most samples”.
In series [2] (setting [4]), `COCC12CCC(OC)C34C5CC6(O)C(OC)C(O)C(O)(C5C6OC(=O)c5ccccc5)C(C(OC)C13)C4N(C)C2` (stereo not shown) [benzoylhypaconine] registered an AUC(0-t) of 0.926 ± 0.279 ng·h/mL, a total exposure AUC(0-inf) of 1.66 ± 0.331 ng·h/mL, a Cmax of 0.466 ± 0.302 ng/mL and an MRT of 23.6 ± 7.39 h. Also, the time of peak concentration (Tmax) in series [2] (setting [4]) was determined as 0.43 ± 0.36 h. In series [2] (setting [5]), this compound yielded an AUC(0-t) of 0.985 ± 0.167 ng·h/mL, an AUC(0-inf) of 1.78 ± 0.905 ng·h/mL, a Cmax of 0.284 ± 0.209 ng/mL and a mean residence time (MRT) of 22.7 ± 14.9 h. The time of peak concentration (Tmax) in series [2] (setting [5]) is 0.48 ± 0.33 h. This compound also gave a half-life in series [2] (setting [6]) of 16.3 ± 5.46 h. In series [2] (setting [7]), this compound showed a half-life of 15.6 ± 9.06 h. The “distribution in rat plasma (quantifiable or not)” value in series [3] is “quantifiable in most samples”.
With `O=c1cc(-c2ccc(O)c(O)c2)oc2cc(O[C@@H]3O[C@H](CO)[C@@H](O)[C@H](O)[C@H]3O)cc(O)c12` [luteoloside], in series [1], the “AUC0–t” value is 0.493 ± 0.147 ng·h/mL, the “AUC0–∞” value turned out to be 0.869 ± 0.272 ng·h/mL and the MRT came out at 29.4 ± 17.5 h. For the same compound, in series [2], the AUC(0-t) turned out to be 0.406 ± 0.055 ng·h/mL, the area under the curve AUC(0-inf) was found to be 1.06 ± 0.47 ng·h/mL, the MRT was 50.5 ± 26.9 h and the time to peak (Tmax) was 0.5 ± 0.33 h. This compound showed a half-life in series [2] (t1/2) of 36.5 ± 16.8 h.
Regarding `Cc1cccc2c3c(ccc12)C1=C(C(=O)C3=O)[C@@H](C)CO1` [dihydrotanshinone I], in series [1], the “AUC0–t” value was 4.67 ± 2.23 ng·h/mL, the “AUC0–∞” value is recorded as 5.98 ± 5.34 ng·h/mL and the mean residence time MRT is recorded as 14.8 ± 9.29 h. Further, in series [2], the AUC(0-t) was found to be 4.99 ± 2.18 ng·h/mL, the total exposure AUC(0-inf) is 4.47 ± 0.864 ng·h/mL, the Cmax turned out to be 0.618 ± 0.25 ng/mL and the MRT turned out to be 8.22 ± 1.2 h. Besides, the Tmax in series [2] was 8 h. The compound further gave a half-life in series [2] (t1/2) of 3.9 ± 0.858 h.
Take `O=C1C[C@@H](c2ccc(O)cc2)Oc2cc(O)ccc21` [liquiritigenin]: in series [1], the “AUC0–t” value worked out at 2.53 ± 0.662 ng·h/mL, the “AUC0–∞” value is 2.81 ± 0.98 ng·h/mL and the MRT is on record as 9.83 ± 4.37 h. In series [2], this compound displayed an exposure AUC(0-t) of 2.11 ± 1.73 ng·h/mL, an area under the curve AUC(0-inf) of 2.22 ± 1.98 ng·h/mL, a Cmax of 0.347 ± 0.276 ng/mL and an MRT of 8.48 ± 1.07 h. The compound also showed a half-life in series [2] (t1/2) of 3.9 ± 1.03 h.
For `C[C@H]1COC2=C1C(=O)C(=O)c1c2ccc2c1CCCC2(C)C` [cryptotanshinone], in series [1], the “AUC0–t” value is 10.2 ± 2.21 ng·h/mL, the “AUC0–∞” value turned out to be 16.4 ± 8.86 ng·h/mL and the mean residence time (MRT) is 25.6 ± 20.1 h. In series [2], the AUC(0-t) came to 8.77 ± 2.26 ng·h/mL, the area under the curve AUC(0-inf) turned out to be 12 ± 5.01 ng·h/mL, the Cmax is 0.898 ± 0.29 ng/mL and the MRT worked out at 19.3 ± 6.01 h. The compound further had a half-life in series [2] (t1/2) of 12.2 ± 5.2 h.
In series [2] (setting [4]), `COCC12CN(C)C3C4C(OC)C1C3(C(OC)CC2O)C1CC2(O)C(OC)C(O)C4(O)C1C2OC(=O)c1ccccc1` (stereo not shown) [benzoylmesaconine] showed an AUC(0-t) of 7.34 ± 7.1 ng·h/mL, an AUC(0-inf) of 11.1 ± 11 ng·h/mL, a Cmax of 3.1 ± 2.49 ng/mL and an MRT of 13.7 ± 6.58 h. In addition, in series [2] (setting [4]), the Tmax turned out to be 0.47 ± 0.33 h. In series [2] (setting [5]), this compound displayed an exposure AUC(0-t) of 5.82 ± 2.93 ng·h/mL, an area under the curve AUC(0-inf) of 8.3 ± 6.14 ng·h/mL, a maximum concentration (Cmax) of 1.15 ± 0.778 ng/mL and an MRT of 20.1 ± 10.3 h. In series [2] (setting [5]), the Tmax was determined as 0.42 ± 0.37 h. Also, the half-life in series [2] (setting [6]) was 9.77 ± 5.36 h. The compound also showed a half-life in series [2] (setting [7]) of 13 ± 6.34 h. Further, in series [3], the “distribution in rat plasma (quantifiable or not)” value is “quantifiable in most samples”.
In series [2] (setting [4]), `COC[C@@]12CC[C@H](OC)[C@]34C(C([C@H](OC)[C@H]13)[C@]1(OC(C)=O)[C@H]3[C@@H](OC(=O)c5ccccc5)[C@](O)(C[C@H]34)[C@@H](OC)[C@@H]1O)N(C)C2` [hypaconitine] returned an exposure AUC(0-t) of 0.567 ± 0.26 ng·h/mL, an AUC(0-inf) of 0.552 ± 0.148 ng·h/mL, a Cmax of 0.156 ± 0.134 ng/mL and an MRT of 11.9 ± 3.73 h. For the same compound, the Tmax in series [2] (setting [4]) worked out at 1.54 ± 0.71 h. In series [2] (setting [5]), this compound displayed an area under the curve AUC(0-t) of 0.824 ± 0.249 ng·h/mL, an AUC(0-inf) of 0.967 ± 0.303 ng·h/mL, a Cmax of 0.101 ± 0.0328 ng/mL and an MRT of 11.7 ± 2.83 h. Further, in series [2] (setting [5]), the Tmax turned out to be 2.08 ± 1.6 h. The same compound showed a half-life in series [2] (setting [6]) of 7.45 ± 1.18 h. The same compound showed a half-life in series [2] (setting [7]) of 8.67 ± 1.72 h. For the same compound, in series [3], the “distribution in rat plasma (quantifiable or not)” value is recorded as “quantifiable in most samples”.
Turning to `O=C1C[C@@H](c2ccc(O[C@@H]3O[C@H](CO)[C@@H](O)[C@H](O)[C@H]3O)cc2)Oc2cc(O)ccc21` [liquiritin], in series [1], the “AUC0–t” value is 7.66 ± 2.60 ng·h/mL, the “AUC0–∞” value was 9.14 ± 4.02 ng·h/mL and the mean residence time (MRT) was 10.2 ± 5.77 h. Also, in series [2], the AUC(0-t) stood at 6.01 ± 1.52 ng·h/mL, the AUC(0-inf) amounted to 7.37 ± 2.08 ng·h/mL, the MRT was 10.3 ± 2.3 h and the time of peak concentration (Tmax) worked out at 0.29 ± 0.17 h. This compound showed a half-life in series [2] (t1/2) of 5.76 ± 0.36 h.
`Cc1coc2c1C(=O)C(=O)c1c-2ccc2c(C)cccc12` [tanshinone I]: the “AUC0–t” value in series [1] worked out at 4.54 ± 1.58 ng·h/mL. Further, in series [2], the AUC(0-t) was 3.62 ± 0.763 ng·h/mL, the AUC(0-inf) is 5.58 ± 2.56 ng·h/mL, the Cmax worked out at 0.297 ± 0.115 ng/mL and the mean residence time MRT was found to be 18.2 ± 2.76 h. Also, in series [2], the time to peak (Tmax) was 8 h. Moreover, the half-life in series [2] (t1/2) was 10.7 ± 1.2 h.

The values are drawn from PMC6150229, “Simultaneous Determination of Twenty-Five Compounds in Rat Plasma Using Ultra-High Performance Liquid Chromatography-Polarity Switching Tandem Mass Spectrometry and Its Application to a Pharmacokinetic Study” (Molecules : A Journal of Synthetic Chemistry and Natural …, 2017).
